From patent US20200010479A1, “INHIBITORS OF MICROBIAL BETA-GLUCURONIDASE ENZYMES AND USES THEREOF” (THE UNIVERSITY OF NORTH CAROLINA AT CHAPEL HILL, priority 2017, published 2020)

Experiments:
E. coli GUS = E. coli GUS (Escherichia coli, UniProt P05804); experiment: In vitro EcGUS inhibition, cleavage of PNPG by purified E. coli GUS; type: biochemical; settings: PNPG substrate, 37° C., 2 hours
Experimental: To assess GUS inhibition, cleavage of p-nitrophenyl-β-D-glucuronide (PNPG) by purified E. coli GUS in the presence of inhibitor was measured. The reaction was performed in 96-well clear-bottom plates at a volume of 50 μL. Each reaction contained 5 μL of 100 nM E. coli GUS, 5 μL of inhibitor at various concentrations, 10 μL of 250 mM HEPES and 250 mM NaCl assay buffer, and 30 μL of 1.5 mM PNPG. The reaction was initiated by addition of PNPG and incubated at 37° C. for 2 hours. End point absorbance values at 410 nm were measured using a PHERAstar Plus microplate reader. The resulting data were fit with a four-parameter logistic log function in SigmaPlot 13.0 to determine IC50 values. IC50 was defined as the concentration of inhibitor that yields a 50% reduction in product formation at equilibrium.

[1] = test system: panel of purified GUS enzymes present in the human gut microbiota; experiment: SN-38-G processing by panel of purified GUS enzymes, with inhibitors; type: biochemical; settings: enzymes other than E. coli GUS
[2] = rats; cited from earlier work
[3] = test system: gut microbial GUS enzymes; settings: co-treatment with irinotecan; cited from earlier work
[4] = test system: GUS activity in human fecal extracts; settings: cited from earlier work
[5] = test system: bacteria cultured in vitro; settings: cited from earlier work

E. coli GUS, sequence (P05804 whole entry): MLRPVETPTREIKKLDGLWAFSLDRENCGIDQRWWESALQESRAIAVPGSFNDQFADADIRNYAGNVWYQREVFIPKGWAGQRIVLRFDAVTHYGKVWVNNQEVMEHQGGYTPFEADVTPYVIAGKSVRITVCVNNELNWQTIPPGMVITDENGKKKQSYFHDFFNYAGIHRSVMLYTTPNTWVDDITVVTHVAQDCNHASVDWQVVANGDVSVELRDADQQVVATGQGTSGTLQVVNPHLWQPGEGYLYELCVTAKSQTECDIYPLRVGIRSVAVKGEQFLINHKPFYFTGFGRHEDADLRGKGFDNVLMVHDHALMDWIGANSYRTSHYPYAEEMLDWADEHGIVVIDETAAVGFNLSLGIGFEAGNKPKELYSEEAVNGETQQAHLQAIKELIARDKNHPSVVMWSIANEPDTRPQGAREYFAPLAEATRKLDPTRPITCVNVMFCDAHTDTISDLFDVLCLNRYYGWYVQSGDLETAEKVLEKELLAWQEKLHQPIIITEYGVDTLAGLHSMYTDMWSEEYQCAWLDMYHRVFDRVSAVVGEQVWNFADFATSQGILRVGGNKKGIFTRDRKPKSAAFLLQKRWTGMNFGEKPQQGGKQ

| SMILES | IC50 (E. coli GUS) | other results |
| --- | --- | --- |
| c1ccc(-c2ccc3c(n2)sc2c(N4CCNCC4)nnnc23)cc1 [Compound 22] | 150 ± 50 nM |  |
| CNc1nc(N2CCNCC2)c2sc3nc(N(C)C)ccc3c2n1 [Compound 28] | 42 ± 6 nM |  |
| C1CCc2c(c(N3CCOCC3)nc3sc4c(NC5CCNCC5)nnnc4c23)C1 [Compound 4] | 30000 ± 10000 nM |  |
| C[C@@H]1CN(c2nnnc3c2sc2nc(N4CCOCC4)c4c(c23)CCCC4)CCN1 [Compound 6] | 2400 ± 400 nM |  |
| CNc1nc(N2CCNCC2)c2sc3nc(N4CCOCC4)ccc3c2n1 [Compound 21] | 100 ± 20 nM |  |
| c1ccc(CNc2nc3sc4c(N5CCNCC5)nnnc4c3c3c2CCCC3)cc1 [Compound 17] | 190 ± 40 nM |  |
| c1ccc(-c2ccc3c(n2)sc2c(N4CCNCC4)ncnc23)cc1 [Compound 23] | 130 ± 30 nM |  |
| C[C@H]1CN(c2nnnc3c2sc2nc(N4CCOCC4)c4c(c23)CCCC4)CCN1 [Compound 7] | 2400 ± 300 nM |  |
| CN(C)c1nc2sc3c(N4CCNCC4)nnnc3c2c2c1CCCC2 [Compound 15] | 130 ± 10 nM |  |
| C1CCC(Nc2nc3sc4c(N5CCNCC5)nnnc4c3c3c2CCCC3)CC1 [Compound 14] | 800 ± 200 nM |  |
| CN(C)c1nc(N2CCNCC2)c2sc3nc(-c4ccccc4)ccc3c2n1 [Compound 25] | 190 ± 90 nM |  |
| CCOc1ccc(NC(=S)N(CCO)Cc2cc3cc(C)cc(C)c3[nH]c2=O)cc1 [Inh1] |  | effects on other GUS enzymes, including others from the L1 category [1]: weak effects; NSAID-induced intestinal anastomosis after surgical resection [2]: reduce NSAID-induced intestinal anastomosis; gut toxicity and diarrhea [3]: alleviated gut toxicity and diarrhea |
| OCCNc1nc(N2CCNCC2)c2sc3nc(-c4ccccc4)ccc3c2n1 [Compound 26] | 120 ± 20 nM |  |
| NCCNc1nnnc2c1sc1nc(N3CCOCC3)c3c(c12)CCCC3 [Compound 9] | 5600 ± 500 nM |  |
| CNc1nc(N2CCNCC2)c2sc3ncccc3c2n1 [Compound 31] | 36 ± 2 nM |  |
| C1CCN(c2nc3sc4c(N5CCNCC5)nnnc4c3c3c2CCCC3)CC1 [Compound 13] | 500 ± 200 nM |  |
| C1CCc2c(c(N3CCNCC3)nc3sc4c(N5CCNCC5)nnnc4c23)C1 [Compound 12] | 130 ± 10 nM |  |
| C1CCc2c(c(N3CCOCC3)nc3sc4c(N5CCCNCC5)nnnc4c23)C1 [Compound 8] | 9000 ± 2000 nM |  |
| Clc1ccc2c(c1)C(N1CCNCC1)=Nc1ccccc1O2 [amoxapine] |  | block of GUS activity in human fecal extracts [4]: incompletely blocks; viability of bacteria cultured in vitro [5]: reduced the viability |
| c1cc2c(nc1N1CCOCC1)sc1c(N3CCNCC3)nnnc12 [Compound 19] | 170 ± 40 nM |  |
| CNc1ccc2c(n1)sc1c(N3CCNCC3)nc(NC)nc12 [Compound 29] | 40 ± 8 nM |  |
| CN(C)c1ccc2c(n1)sc1c(N3CCNCC3)nnnc12 [Compound 27] | 80 ± 30 nM |  |
| C1CCc2c(c(N3CCOCC3)nc3sc4c(N5CC6CC5CN6)nnnc4c23)C1 (centres unmarked) [Compound 5] | 9000 ± 2000 nM |  |
| CNc1nc(N2CCNCC2)c2sc3nc(-c4ccccc4)ccc3c2n1 [Compound 24] | 180 ± 90 nM |  |
| CN1CCN(c2nnnc3c2sc2nc(N4CCOCC4)c4c(c23)CCCC4)CC1 [Compound 2] | 37600 ± 700 nM |  |
| c1cnc2sc3c(N4CCNCC4)ncnc3c2c1 [Compound 30] | 80 ± 20 nM |  |
